Measurements published in BindingDB's records for doi:10.1016/s0960-894x(00)00402-9 (Pharmacia, 2000).

Target: DNA polymerase catalytic subunit (Human cytomegalovirus) (UniProt P08546)
Assay: Inhibitory activity against Human Cytomegalovirus (HCMV) polymerase

DNA polymerase catalytic subunit (Human cytomegalovirus), sequence (P08546 whole entry, looked up): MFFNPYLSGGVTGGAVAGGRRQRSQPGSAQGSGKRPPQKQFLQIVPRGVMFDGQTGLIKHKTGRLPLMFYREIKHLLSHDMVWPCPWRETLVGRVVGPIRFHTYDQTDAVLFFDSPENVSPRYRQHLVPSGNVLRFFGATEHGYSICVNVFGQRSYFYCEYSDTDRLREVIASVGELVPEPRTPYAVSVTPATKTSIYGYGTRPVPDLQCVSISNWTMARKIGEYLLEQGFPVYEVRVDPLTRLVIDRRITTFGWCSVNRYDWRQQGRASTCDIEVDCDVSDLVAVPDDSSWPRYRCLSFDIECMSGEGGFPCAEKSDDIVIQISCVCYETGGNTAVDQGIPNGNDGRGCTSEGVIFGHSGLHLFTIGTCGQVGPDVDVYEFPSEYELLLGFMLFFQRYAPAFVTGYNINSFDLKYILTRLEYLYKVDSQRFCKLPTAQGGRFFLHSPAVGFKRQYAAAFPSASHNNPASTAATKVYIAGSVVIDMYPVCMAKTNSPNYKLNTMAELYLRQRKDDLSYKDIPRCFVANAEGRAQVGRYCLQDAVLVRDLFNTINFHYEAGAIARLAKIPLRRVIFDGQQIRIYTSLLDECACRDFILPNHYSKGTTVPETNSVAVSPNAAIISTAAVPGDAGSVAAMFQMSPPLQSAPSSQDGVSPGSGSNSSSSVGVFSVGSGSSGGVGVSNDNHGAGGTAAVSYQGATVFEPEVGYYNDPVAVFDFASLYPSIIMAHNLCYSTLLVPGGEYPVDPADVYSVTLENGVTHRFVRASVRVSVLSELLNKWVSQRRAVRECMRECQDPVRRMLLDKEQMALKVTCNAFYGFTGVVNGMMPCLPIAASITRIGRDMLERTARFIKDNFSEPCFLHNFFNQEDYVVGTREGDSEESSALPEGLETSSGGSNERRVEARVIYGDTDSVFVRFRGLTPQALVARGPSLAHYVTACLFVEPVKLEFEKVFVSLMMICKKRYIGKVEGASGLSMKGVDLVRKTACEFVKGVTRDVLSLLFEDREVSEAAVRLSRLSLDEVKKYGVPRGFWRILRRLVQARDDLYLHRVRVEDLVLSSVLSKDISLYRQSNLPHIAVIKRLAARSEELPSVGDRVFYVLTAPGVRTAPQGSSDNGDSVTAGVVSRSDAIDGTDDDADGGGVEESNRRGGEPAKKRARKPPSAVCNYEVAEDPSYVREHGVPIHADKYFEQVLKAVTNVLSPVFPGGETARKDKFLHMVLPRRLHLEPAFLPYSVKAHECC

| Structure (SMILES) | IC50 |
| --- | --- |
| N#Cc1ccc(NC(=O)c2cc3ccccc3cc2O)cc1 [3-Hydroxy-naphthalene-2-carboxylic acid (4-cyano-phenyl)-amide] | 19 µM |
| COc1cc2ccccc2cc1C(=O)NCc1ccc(Cl)cc1 [3-Methoxy-naphthalene-2-carboxylic acid 4-chloro-benzylamide] | 8 µM |
| O=C(Nc1ccc([N+](=O)[O-])cc1)c1cc2ccccc2cc1O [3-Hydroxy-naphthalene-2-carboxylic acid (4-nitro-phenyl)-amide] | 22 µM |
| COc1ccc2cc(O)c(C(=O)Nc3nnc(Cc4ccc(Cl)cc4)s3)cc2c1 [3-Hydroxy-7-methoxy-naphthalene-2-carboxylic acid [5-(4-chloro-benzyl)-[1,3,4]thiadiazol-2-yl]-amide] | 4 µM |
| O=C(NCc1ccc([N+](=O)[O-])cc1)c1cc2ccccc2cc1O [3-Hydroxy-naphthalene-2-carboxylic acid 4-nitro-benzylamide] | 12 µM |
| O=C(NCc1ccc(Cl)cc1)c1ccc2ccccc2c1O [1-Hydroxy-naphthalene-2-carboxylic acid 4-chloro-benzylamide] | 13 µM |
| O=C(Nc1ccccc1)c1cc2ccccc2cc1O [3-Hydroxy-naphthalene-2-carboxylic acid phenylamide] | > 100 µM |
| COc1ccc2cc(O)c(C(=O)Nc3nc(-c4ccc(Cl)cc4)cs3)cc2c1 [3-Hydroxy-7-methoxy-naphthalene-2-carboxylic acid [4-(4-chloro-phenyl)-thiazol-2-yl]-amide] | 6 µM |
| COc1ccc2cc(O)c(CNCc3ccc(Cl)cc3)cc2c1 [3-[(4-Chloro-benzylamino)-methyl]-6-methoxy-naphthalen-2-ol] | > 100 µM |
| O=C(Nc1ccccn1)c1cc2ccccc2cc1O [3-Hydroxy-naphthalene-2-carboxylic acid pyridin-2-ylamide] | > 100 µM |
| O=C(NCc1ccc([N+](=O)[O-])cc1)c1cc2cc(Br)ccc2c(Br)c1O [4,7-Dibromo-3-hydroxy-naphthalene-2-carboxylic acid 4-nitro-benzylamide] | 2.9 µM |
| O=C(NCCc1ccc(Cl)cc1)c1cc2ccccc2cc1O [3-Hydroxy-naphthalene-2-carboxylic acid [2-(4-chloro-phenyl)-ethyl]-amide] | > 100 µM |
| O=C(Nc1ccc(Cl)cc1)c1cc2ccccc2cc1O [3-Hydroxy-naphthalene-2-carboxylic acid (4-chloro-phenyl)-amide] | 69 µM |
| O=C(NCc1ccc([N+](=O)[O-])cc1)c1cc2cccc(O)c2cc1O [3,5-Dihydroxy-naphthalene-2-carboxylic acid 4-nitro-benzylamide] | 3.8 µM |
| O=C(NCc1ccc(Cl)cc1)c1cc2cc(O)ccc2cc1O [3,7-Dihydroxy-naphthalene-2-carboxylic acid 4-chloro-benzylamide] | 2.4 µM |
| O=C(Nc1ccc([N+](=O)[O-])cc1)c1ccc2ccccc2c1 [Naphthalene-2-carboxylic acid (4-nitro-phenyl)-amide] | > 100 µM |
| O=C(NCc1ccc(Cl)cc1)c1cc2ccccc2cc1O [3-Hydroxy-naphthalene-2-carboxylic acid 4-chloro-benzylamide] | 52 µM |
| COc1ccc2cc(O)c(C(=O)NCc3ccc([N+](=O)[O-])cc3)cc2c1 [3-Hydroxy-7-methoxy-naphthalene-2-carboxylic acid 4-nitro-benzylamide] | 0.82 µM |

| Structure (SMILES) | IC50 |
| --- | --- |
| COc1ccc2cc(O)c(C(=O)Nc3ncc(Cl)s3)cc2c1 [3-Hydroxy-7-methoxy-naphthalene-2-carboxylic acid (5-chloro-thiazol-2-yl)-amide] | 59 µM |
| COc1ccc2cc(O)c(C(=O)NCc3ccc(Cl)cc3)cc2c1 [3-Hydroxy-7-methoxy-naphthalene-2-carboxylic acid 4-chloro-benzylamide] | 0.76 µM |
| COc1ccc2cc(O)c(C(=O)Nc3nc4c(Cl)cccc4s3)cc2c1 [3-Hydroxy-7-methoxy-naphthalene-2-carboxylic acid (4-chloro-benzothiazol-2-yl)-amide] | 6.4 µM |
| COc1cc2ccccc2cc1C(=O)Nc1ccc([N+](=O)[O-])cc1 [3-Methoxy-naphthalene-2-carboxylic acid (4-nitro-phenyl)-amide] | > 100 µM |
| O=C(NCc1ccc([N+](=O)[O-])cc1)c1ccc2ccccc2c1O [1-Hydroxy-naphthalene-2-carboxylic acid 4-nitro-benzylamide] | 14.5 µM |
| O=C(NCc1ccc([N+](=O)[O-])cc1)c1cc2cc(O)ccc2cc1O [3,7-Dihydroxy-naphthalene-2-carboxylic acid 4-nitro-benzylamide] | 10.6 µM |
| O=C(NCc1ccc(Cl)cc1)c1ccc2ccccc2c1 [Naphthalene-2-carboxylic acid 4-chloro-benzylamide] | > 100 µM |
| O=C(Nc1ccc(Cl)cc1)c1ccc2ccccc2c1O [1-Hydroxy-naphthalene-2-carboxylic acid (4-chloro-phenyl)-amide] | 37 µM |
| COc1ccc2cc(O)c(C(=O)Nc3nc(-c4cccc([N+](=O)[O-])c4)cs3)cc2c1 [3-Hydroxy-7-methoxy-naphthalene-2-carboxylic acid [4-(3-nitro-phenyl)-thiazol-2-yl]-amide] | 2.4 µM |
| COc1ccc(NC(=O)c2cc3ccccc3cc2O)cc1 | 56 µM |
| O=C(NCc1ccc(Cl)cc1)c1cc2cccc(O)c2cc1O [3,5-Dihydroxy-naphthalene-2-carboxylic acid 4-chloro-benzylamide] | 3.3 µM |
| O=C(Nc1cccnc1)c1cc2ccccc2cc1O [3-Hydroxy-naphthalene-2-carboxylic acid pyridin-3-ylamide] | > 100 µM |
| O=C(NCCc1ccc([N+](=O)[O-])cc1)c1cc2ccccc2cc1O [3-Hydroxy-naphthalene-2-carboxylic acid [2-(4-nitro-phenyl)-ethyl]-amide] | > 100 µM |
| COCOc1cc2ccccc2cc1C(=O)Nc1ccc([N+](=O)[O-])cc1 [3-Methoxymethoxy-naphthalene-2-carboxylic acid (4-nitro-phenyl)-amide] | > 100 µM |
| Nc1cccc(NC(=O)c2cc3ccccc3cc2O)c1 [3-Hydroxy-naphthalene-2-carboxylic acid (3-amino-phenyl)-amide] | > 100 µM |
| O=C(Nc1cccc([N+](=O)[O-])c1)c1cc2ccccc2cc1O | 12 µM |
| O=C(Nc1ccc(Br)cc1)c1cc2ccccc2cc1O [3-Hydroxy-naphthalene-2-carboxylic acid (4-bromo-phenyl)-amide] | 22 µM |
